The source of these data is patent publication US20060079453A1, “Hla binding peptides and their uses” (priority 2002, published 2006).

Some targets named below: HLA-DR DRB1*1101 (DR11) (Homo sapiens, UniProt P01903+P01911, A100R/A169T/A87E/I96F/K41T/L162R/M171V/P40S/Q125H/Q178H/Q39Y/Q99D/R42S/S66Y/T262R/V115G/W38E); HLA-DR DRB3*0101 (DR52) (Homo sapiens, UniProt P01903+P79483); HLA-DR DRB1*0405 (DR4) (Homo sapiens, UniProt P01903+P01911, A100R/A169T/D86S/F76Y/I96L/K127E/L162R/M171V/N62H/P40V/Q125Y/R42H/S133A/S149N/S66Y/V115G/V209L/W38E); HLA-DR DRB1*0301 (DR3) (Homo sapiens, UniProt P01903+P01911, A100K/A102G/A103R/A169T/F55Y/I96L/K41T/L162R/M171V/P40S/Q125H/Q178H/Q39Y/R42S/S66N/T106N/T262R/W38E/Y61H); HLA-DR DRB5*0101 (DR51) (Homo sapiens, UniProt P01903+Q30154); HLA-DR DRB1*0101 (DR1) (Homo sapiens, UniProt P01903+P01911, A100R/D57E/F55L/F60I/F76Y/I96L/L162R/M171V/P40L/Q125E/R42F/V115G/Y59C); HLA-DR DRB1*1302 (DR13) (Homo sapiens, UniProt P01903+P01911, A100E/A169T/K41T/L162R/M171V/P40S/Q125H/Q178H/Q39Y/Q99D/R42S/S66N/T262R/V115G/W38E/Y61H); HLA-DR DRB1*0802 (DR8) (Homo sapiens, UniProt P01903+P01911, A100R/A103L/A169T/F76Y/H45Y/I96F/K41T/L162R/M171V/P40S/Q125H/Q178H/Q39Y/Q99D/R218S/R42G/S66Y/V115G/W38E); HLA-DR DRB4*0101 (DR53) (Homo sapiens, UniProt P01903+P13762, G164S); HLA-DR DRB1*1501 (DR15) (Homo sapiens, UniProt P01903+P01911); HLA-DR DRB1*0701 (DR7) (Homo sapiens, UniProt P01903+P01911, A100R/A102G/A103Q/D57E/D86V/E43K/F76Y/K127E/L162R/M171V/P40G/Q125H/Q99D/R33Q/R42Y/R54Q/S133A/S66F/T210M/V115G/Y107V/Y59L/Y89S).

Common to all, as to assay: biochemical
Holding throughout (format): binding

The target of the next assay is HLA-DR DRB1*0401 (DR4) (Homo sapiens, UniProt P01903+P01911, A100K/A169T/F76Y/I96L/K127E/L162R/M171V/N62H/P40V/Q125Y/R42H/S133A/S149N/S66Y/V115G/V209L/W38E). The conditions noted are these: DRB1 *0401.
The target in a further assay is HLA-DR DRB1*0901 (DR9) (Homo sapiens, UniProt P01903+P01911, A100R/A103E/D57H/D86V/F55Y/F60I/F76Y/I96F/K127E/L162R/M171V/P40D/Q125H/Q99R/R33Q/R42F/S133A/S66N/T210M/V115G/W38K/Y107V/Y59G/Y89S). The note with it: DRB1 *0901.

Like-named read-outs stand apart in the source and are kept apart here. No end group written: not given here.

Chain of HLA-DR DRB1*1101 (DR11) (P01903 26-254 limits assumed, other chains not shown): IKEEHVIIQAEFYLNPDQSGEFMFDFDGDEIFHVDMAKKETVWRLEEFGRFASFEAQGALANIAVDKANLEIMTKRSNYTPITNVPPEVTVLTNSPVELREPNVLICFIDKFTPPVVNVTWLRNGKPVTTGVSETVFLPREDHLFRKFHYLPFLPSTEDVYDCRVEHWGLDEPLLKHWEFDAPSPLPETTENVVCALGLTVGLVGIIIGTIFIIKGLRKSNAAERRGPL
Chain of HLA-DR DRB1*1302 (DR13) (P01903 26-254 limits assumed, other chains not shown): as above
Chain of HLA-DR DRB1*0301 (DR3) (P01903 26-254 limits assumed, other chains not shown): as above

The term IC50 denotes the concentration that gives 50% inhibition. As to FTRGKRMSSLHLKRY, the IC50 came out at 0.081 µM against HLA-DR DRB1*1101 (DR11) (DRB1 *1101); 18.8 µM on HLA-DR DRB3*0101 (DR52); 1.01 µM at HLA-DR DRB1*0401 (DR4); 0.484 µM against HLA-DR DRB1*0405 (DR4) (DRB1 *0405); 3.3 µM against HLA-DR DRB1*0301 (DR3); 0.084 µM against HLA-DR DRB5*0101 (DR51) (DRB5 *0101). The half-inhibitory concentration (IC50) is 0.013 µM at HLA-DR DRB1*0101 (DR1) (DRB1 *0101), 10.2 µM on HLA-DR DRB1*1302 (DR13) (DRBI *1302), 0.553 µM on HLA-DR DRB1*0802 (DR8) and 2.03 µM at HLA-DR DRB4*0101 (DR53) (DRB4 *0101).
Turning to ELVSEFSRMARDPQ, the half-maximal inhibitory concentration (IC50) came to 4.57 µM against HLA-DR DRB1*1101 (DR11) (DRB1 *1101); 15.8 µM against HLA-DR DRB3*0101 (DR52); 0.12 µM on HLA-DR DRB1*0401 (DR4); 7.89 µM against HLA-DR DRB1*1501 (DR15) (DRBI *1501); 15.1 µM at HLA-DR DRB1*0405 (DR4) (DRB1 *0405); 0.201 µM against HLA-DR DRB1*0101 (DR1) (DRB1 *0101). The IC50 against HLA-DR DRB1*1302 (DR13) (DRBI *1302) is more than 71.4 µM; against HLA-DR DRB4*0101 (DR53) (DRB4 *0101), 0.97 µM; at HLA-DR DRB1*0901 (DR9), 91.6 µM; against HLA-DR DRB1*0701 (DR7) (DRB1 *0701), 21.3 µM.
Take YGAVVNLRKTVVNFP: the 50% inhibitory concentration (IC50) against HLA-DR DRB1*1101 (DR11) (DRB1 *1101) was 0.089 µM; against HLA-DR DRB3*0101 (DR52), 51.5 µM; at HLA-DR DRB1*0401 (DR4) it was 4.19 µM; on HLA-DR DRB1*1501 (DR15) (DRBI *1501), 0.47 µM; against HLA-DR DRB1*0405 (DR4) (DRB1 *0405), more than 95 µM; at HLA-DR DRB1*0301 (DR3), 150 µM. Moreover, the IC50 against HLA-DR DRB5*0101 (DR51) (DRB5 *0101) was 0.036 µM; on HLA-DR DRB1*0101 (DR1) (DRB1 *0101), 13.5 µM; at HLA-DR DRB1*1302 (DR13) (DRBI *1302) it was 11.2 µM; against HLA-DR DRB4*0101 (DR53) (DRB4 *0101), 0.302 µM; against HLA-DR DRB1*0701 (DR7) (DRB1 *0701) it was 8.27 µM.
RTITADTFRKLFRVY: the IC50 came to 0.672 µM against HLA-DR DRB3*0101 (DR52); 1.04 µM against HLA-DR DRB1*0401 (DR4); 0.035 µM against HLA-DR DRB1*1501 (DR15) (DRBI *1501); 1.96 µM against HLA-DR DRB1*0405 (DR4) (DRB1 *0405); 0.093 µM against HLA-DR DRB5*0101 (DR51) (DRB5 *0101); 0.148 µM against HLA-DR DRB1*0101 (DR1) (DRB1 *0101). Moreover, the IC50 at HLA-DR DRB1*1302 (DR13) (DRBI *1302) worked out at 0.095 µM; against HLA-DR DRB1*0802 (DR8), 0.792 µM; on HLA-DR DRB4*0101 (DR53) (DRB4 *0101), 1.56 µM.
As for EMLQNIFAIFRQDSS, the IC50 came out at 36.8 µM on HLA-DR DRB1*1101 (DR11) (DRB1 *1101); 0.726 µM on HLA-DR DRB3*0101 (DR52); 0.685 µM against HLA-DR DRB1*0401 (DR4); 1.72 µM against HLA-DR DRB1*1501 (DR15) (DRBI *1501); 0.456 µM at HLA-DR DRB1*0405 (DR4) (DRB1 *0405); 9.54 µM at HLA-DR DRB1*0301 (DR3). Also, the concentration for half-maximal inhibition (IC50) at HLA-DR DRB5*0101 (DR51) (DRB5 *0101) was 3.19 µM; at HLA-DR DRB1*0101 (DR1) (DRB1 *0101), 0.395 µM; against HLA-DR DRB1*1302 (DR13) (DRBI *1302), 0.061 µM; at HLA-DR DRB4*0101 (DR53) (DRB4 *0101), 0.164 µM; against HLA-DR DRB1*0901 (DR9), 9.74 µM; at HLA-DR DRB1*0701 (DR7) (DRB1 *0701) it was 3.31 µM.
As for VGGVYLLPARGPRLGV, the IC50 against HLA-DR DRB1*1101 (DR11) worked out at 0.694 µM; on HLA-DR DRB3*0101 (DR52), 18.1 µM; against HLA-DR DRB1*1501 (DR15), 0.0065 µM; on HLA-DR DRB1*0405 (DR4), 4.58 µM; on HLA-DR DRB1*0301 (DR3), 68.1 µM; at HLA-DR DRB5*0101 (DR51), 0.04 µM. For the same sequence, the IC50 was found to be 0.012 µM against HLA-DR DRB1*0101 (DR1), 0.201 µM on HLA-DR DRB1*1302 (DR13), 19 µM against HLA-DR DRB4*0101 (DR53) and 0.049 µM against HLA-DR DRB1*0701 (DR7).
In the case of SFLQNPQTSLTFSES, the IC50 against HLA-DR DRB1*1101 (DR11) (DRB1 *1101) is more than 15.4 µM; against HLA-DR DRB3*0101 (DR52) it was 0.864 µM; at HLA-DR DRB1*0401 (DR4) it was 7.78 µM; on HLA-DR DRB1*1501 (DR15) (DRBI *1501), 1.51 µM; against HLA-DR DRB1*0405 (DR4) (DRB1 *0405) it was 9.56 µM; on HLA-DR DRB1*0301 (DR3), 2.39 µM. For the same sequence, the figures for the IC50 against HLA-DR DRB1*1302 (DR13) (DRBI *1302), on HLA-DR DRB1*0802 (DR8) and on HLA-DR DRB1*0701 (DR7) (DRB1 *0701) were 0.121 µM, more than 33.3 µM and 6.2 µM, respectively.
In the case of SNLELLRICLLLIQS, the IC50 against HLA-DR DRB1*1101 (DR11) (DRB1 *1101) was more than 15.4 µM; at HLA-DR DRB3*0101 (DR52) it was 17 µM; against HLA-DR DRB1*1501 (DR15) (DRBI *1501), 0.09 µM; on HLA-DR DRB1*0405 (DR4) (DRB1 *0405) it was 1.11 µM; on HLA-DR DRB1*0301 (DR3), 61.9 µM; on HLA-DR DRB5*0101 (DR51) (DRB5 *0101) it was more than 11.8 µM. Moreover, the IC50 at HLA-DR DRB1*1302 (DR13) (DRBI *1302) came out at 0.773 µM; on HLA-DR DRB1*0802 (DR8) it was 19.8 µM; at HLA-DR DRB4*0101 (DR53) (DRB4 *0101), 0.164 µM; against HLA-DR DRB1*0701 (DR7) (DRB1 *0701) it was 1.22 µM.
